PMC5088614 (PeerJ, 2016)
Values after ≈ are worked out from the molar mass of the structure shown. Values joined by “and” are separate entries in the source; they are usually repeats but may differ in a detail not shown here. Identical values can stand only once. “Also recorded” adds a separate entry of the source. Like-named read-outs stand apart in the source and are kept apart here. Positions of bridges follow the written chain, without caps; N, C: chain ends. Residues, ends and D or L forms follow the SMILES beside them.

What was measured:
[1] = system: B. pseudomallei strain K96243; assay type: cell-based, Burkholderia pseudomallei
[2] = system: B. pseudomallei K96243 biofilm; assay type: cell-based, Burkholderia pseudomallei; parameters: Mean Diff., Untreated vs treated, Dunnett's Multiple Comparison Test (data for figure 2): unit not given here
[3] = system: B. pseudomallei strains used in the preliminary study; assay type: cell-based, Burkholderia pseudomallei
E.coli ATCC 25922 = assay type: cell-based, Escherichia coli
B. pseudomallei biofilm = conditions: cited from earlier work
[4] = system: A549, HEPG2 and AGS cells
[5] = system: Escherichia coli (ATCC 29522)
[6] = system: human lung epithelial (A549) cells; conditions: cited from earlier work
[7] = system: human gastric adenocarcinoma (AGS) cells; conditions: cited from earlier work
B. pseudomallei isolates = assay type: cell-based, Burkholderia pseudomallei
E. coli = assay type: cell-based, Escherichia coli
[8] = system: B. pseudomallei strain K96243 and clinical strains UMC031, UMC080, UMC089; conditions: for MIC, B. pseudomallei (average): 24 h
[9] = system: human lung epithelial (A549) cells
[10] = system: human hepatocellular carcinoma (HepG2) cells
[11] = system: human gastric adenocarcinoma (AGS) cells
[12] = system: human hepatocellular carcinoma (HepG2) cells; conditions: cited from earlier work
B. pseudomallei K96243 = assay type: cell-based, Burkholderia pseudomallei

CC(C)(O/N=C(\C(=O)N[C@@H]1C(=O)N2C(C(=O)[O-])=C(C[n+]3ccccc3)CS[C@H]12)c1csc(N)n1)C(=O)O [CAZ, ceftazidime]
time after exposure to growth inhibition / bactericidal endpoint [1]: 8 h | Mean Diff., Untreated vs treated, Dunnett's Multiple Comparison Test (data for figure 2) [2]: 7.842 | reduction of surviving bacteria in biofilm state compared to the untreated (significance) [2]: significant reduction | inhibition of bacteria in biofilm state compared to untreated ([2]; 24 h): complete inhibition | Antibiotic susceptibility by disk diffusion [3]: R and S | Antibiotic susceptibility by disk diffusion (E.coli ATCC 25922): S | concentration with anti-B. pseudomallei biofilm / biofilm inhibition activity (B. pseudomallei biofilm): 936 µM | Mean Diff., 0 vs comparator, Dunnett's Multiple Comparison Test (MTT) [4]: 13.7

O=C(O)c1cn(C2CC2)c2cc(N3CCNCC3)c(F)cc2c1=O [CIP]
Antibiotic susceptibility by disk diffusion (E.coli ATCC 25922): S

O=C(N[C@H](CO)[C@H](O)c1ccc([N+](=O)[O-])cc1)C(Cl)Cl [C]
Antibiotic susceptibility by disk diffusion [3]: S and R | Antibiotic susceptibility by disk diffusion (E.coli ATCC 25922): S

C[C@H]1c2cccc(O)c2C(O)=C2C(=O)[C@]3(O)C(O)=C(C(N)=O)C(=O)[C@@H](N(C)C)[C@@H]3[C@@H](O)[C@@H]21 [DXT]
Antibiotic susceptibility by disk diffusion [3]: S | Antibiotic susceptibility by disk diffusion (E.coli ATCC 25922): S

C[C@@H](O)[C@H]1C(=O)N2C(C(=O)O)=C(SCCN=CN)C[C@H]12 [IMI]
Antibiotic susceptibility by disk diffusion [3]: S | Antibiotic susceptibility by disk diffusion (E.coli ATCC 25922): S

CC[C@H](C)[C@H](NC(=O)[C@H](CCCCN)NC(=O)[C@H](CCC(=O)O)NC(=O)[C@H](CCCCN)NC(=O)[C@H](CO)NC(=O)[C@H](CCCCN)NC(=O)[C@H](CCCNC(=N)N)NC(=O)[C@H](Cc1ccccc1)NC(=O)[C@H](Cc1ccccc1)NC(=O)[C@H](CC(=O)O)NC(=O)CNC(=O)[C@H](CC(C)C)NC(=O)[C@@H](N)CC(C)C)C(=O)NCC(=O)N[C@@H](CCCCN)C(=O)N[C@@H](CCC(=O)O)C(=O)N[C@@H](Cc1ccccc1)C(=O)N[C@@H](CCCCN)C(=O)N[C@@H](CCCNC(=N)N)C(=O)N[C@H](C(=O)N[C@H](C(=O)N[C@@H](CCC(N)=O)C(=O)N[C@@H](CCCNC(=N)N)C(=O)N[C@H](C(=O)N[C@@H](CCCCN)C(=O)N[C@@H](CC(=O)O)C(=O)N[C@@H](Cc1ccccc1)C(=O)N[C@@H](CC(C)C)C(=O)N[C@@H](CCCNC(=N)N)C(=O)N[C@@H](CC(N)=O)C(=O)N[C@@H](CC(C)C)C(=O)N[C@H](C(=O)N1CCC[C@H]1C(=O)N[C@@H](CCCNC(=N)N)C(=O)N[C@H](C(=O)N[C@@H](CCC(=O)O)C(=O)N[C@@H](CO)C(=O)O)[C@@H](C)O)C(C)C)[C@@H](C)CC)C(C)C)[C@@H](C)CC [LL-37]
MBC, E.coli (ATCC 29522) ([5]; ATCC 29522, 24 h): 14.8 ± 6.42 µM (≈ 66.5 µg/mL) | MIC, E.coli (ATCC 29522) ([5]; ATCC 29522, 24 h): 14.8 ± 6.42 µM (≈ 66.5 µg/mL) | cytotoxicity to A549 [6]: cytotoxic | cytotoxicity to AGS [7]: cytotoxic

C[C@@H](O)[C@H]1C(=O)N2C(C(=O)O)=C(S[C@@H]3CN[C@H](C(=O)N(C)C)C3)[C@H](C)[C@H]12 [MRP, meropenem]
Mean Diff., Untreated vs treated, Dunnett's Multiple Comparison Test (data for figure 2) [2]: 7.842 | reduction of surviving bacteria in biofilm state compared to the untreated (significance) [2]: significant reduction | inhibition of bacteria in biofilm state compared to untreated ([2]; 24 h): complete inhibition | Antibiotic susceptibility by disk diffusion [3]: S | Antibiotic susceptibility by disk diffusion (E.coli ATCC 25922): S | Mean Diff., 0 vs comparator, Dunnett's Multiple Comparison Test (MTT) [4]: 11.53

CC(C)C[C@H](NC(=O)[C@H](CCCNC(=N)N)NC(=O)CNC(=O)CNC(=O)[C@@H](N)CCCNC(=N)N)C(=O)N[C@H]1CSSC[C@@H](C(=O)N[C@H](C(=O)NCC(=O)N[C@@H](CCCNC(=N)N)C(N)=O)C(C)C)NC(=O)[C@H](C(C)C)NC(=O)[C@@H]2CSSC[C@H](NC(=O)[C@H](Cc3ccc(O)cc3)NC1=O)C(=O)N[C@@H](CCCNC(=N)N)C(=O)N[C@@H](CCCNC(=N)N)C(=O)N[C@@H](CCCNC(=N)N)C(=O)N[C@@H](Cc1ccccc1)C(=O)N2 [PG1, Protegrin 1]
B. pseudomallei isolates susceptible to the AMP (B. pseudomallei isolates): 100% | Mean Diff., Untreated vs treated, Dunnett's Multiple Comparison Test (data for figure 2) [2]: 6.743 | reduction of surviving bacteria in biofilm state compared to the untreated (significance) [2]: significant reduction | surviving bacteria in biofilm state 24 h post exposure [2]: 1.1 log CFU/biofilm | Susceptibility of strain to AMP (S/R), preliminary study (E. coli): S | MIC, B. pseudomallei (average) [8]: 15.46 ± 5.02 µM (≈ 33.3 µg/mL) | MIC, E.coli (ATCC 29522) ([5]; 37 °C 24 h): 5.8 ± 1.09E-15 μM | percentage of viable cells, A549 ([9]; 2 h, 115 μM): 3.3% | percentage of viable cells, HEPG2 ([10]; 2 h, 115 μM): 5.0% | percentage of viable cells, AGS ([11]; 2 h, 115 μM): 3.0% | Mean Diff., 0 vs comparator, Dunnett's Multiple Comparison Test (MTT) [4]: 96.14 | cytotoxicity against Hep G2 [12]: cytotoxic

CN(C)c1cc(NC(=O)CNC(C)(C)C)c(O)c2c1C[C@H]1C[C@H]3[C@H](N(C)C)C(O)=C(C(N)=O)C(=O)[C@@]3(O)C(O)=C1C2=O [TGC]
Antibiotic susceptibility by disk diffusion [3]: R and S

CC[C@H](C)[C@@H]1NC(=O)CNC(=O)[C@H](CCCNC(=N)N)NC(=O)[C@H](Cc2ccc(O)cc2)NC(=O)[C@@H]2CSSC[C@H](NC1=O)C(=O)N[C@@H](Cc1ccc(O)cc1)C(=O)N[C@@H](CCCNC(=N)N)C(=O)N[C@@H](CCCNC(=N)N)C(=O)N[C@H](C(=O)N[C@@H](CCCNC(=N)N)C(N)=O)CSSC[C@H](NC(=O)[C@H](Cc1c[nH]c3ccccc13)NC(=O)[C@@H](N)CCCCN)C(=O)N[C@@H](Cc1ccccc1)C(=O)N[C@@H](CCCNC(=N)N)C(=O)N[C@@H](C(C)C)C(=O)N2 [TP1, Tachyplesin 1] (H-KWCFRVCYRGICYRRCR-NH2; disulfide 3-16, 7-12)
B. pseudomallei isolates susceptible to the AMP (B. pseudomallei isolates): 83% | Susceptibility of strain to AMP (S/R), preliminary study (B. pseudomallei isolates): S and R | concentration inhibiting B. pseudomallei K96243 growth [1]: > 55 µM | time after exposure to growth inhibition [1]: following eight hours of exposure | viable bacteria at 24 h [1]: 9.96 log CFU/ml | MBEC [2]: not achieved | Mean Diff., 0 vs concentration (Bonferroni's test) [2]: 4.116 and 4.208 | Mean Diff., Untreated vs treated, Dunnett's Multiple Comparison Test (data for figure 2) [2]: 3.641 | concentration of maximum inhibition of cells in biofilm state [2]: 442 µM | concentration reducing the number of B. pseudomallei in biofilm state [2]: above 55 μM | inhibition activity of TP1 higher than LL-37 [2]: approximately 2.0 log | inhibition activity of TP1 lower than PG1 [2]: 3.5 log | log reduction of bacteria in biofilm state [2]: 1.0 log and 1.3 log | reduction of surviving bacteria in biofilm state compared to the untreated (significance) [2]: significant reduction | surviving bacteria in biofilm state [2]: ~4.00 log CFU/biofilm | surviving bacteria in biofilm state 24 h post exposure [2]: 4.2 log CFU/biofilm | surviving bacteria in biofilm state at the end of the TP1 concentration series ([2]; 24 h): 3.6 log CFU/biofilm | cell morphology by SEM (B. pseudomallei K96243): membrane blebbing; also recorded: corrugated with dimples on the surface | Susceptibility of strain to AMP (S/R), preliminary study (E. coli): S | MBC, B. pseudomallei (average) ([8]; 37 °C 24 h): 193.35 ± 2.00E-14 μM | MIC, B. pseudomallei (average) [8]: 61.69 ± 6.38 µM (≈ 140 µg/mL) | MBC, E.coli (ATCC 29522) ([5]; ATCC 29522, 24 h): 22.1 ± 0 µM (≈ 50 µg/mL) | MIC, E.coli (ATCC 29522) ([5]; ATCC 29522, 24 h): 22.1 ± 0 µM (≈ 50 µg/mL) | MTT, mean over the lower concentrations [9]: 86.0736 | MTT, mean over the lower concentrations [10]: 91.041 | MTT, mean over the lower concentrations [11]: 87.0414 | percentage of viable cells, AGS ([11]; 2 h, 2.7 μM): 85.1% | percentage of viable cells, AGS ([11]; 2 h, 48.6 μM): 80% | percentage of viable cells, AGS ([11]; 24 h, 22.3 μM): 90.0 ± 8.4%

GFKLKGMARISCLPNGQWSNFPPKCIRECA [Sushi 1]
Susceptibility of strain to AMP (S/R), preliminary study (B. pseudomallei isolates): R | Mean Diff., Untreated vs treated, Dunnett's Multiple Comparison Test (data for figure 2) [2]: 0.04572 | Susceptibility of strain to AMP (S/R), preliminary study (E. coli): S

GIGKFLHSAKKFGKAFVGEIMNS [Magainin 2]
Susceptibility of strain to AMP (S/R), preliminary study (B. pseudomallei isolates): R | Mean Diff., Untreated vs treated, Dunnett's Multiple Comparison Test (data for figure 2) [2]: 0.2494 | Susceptibility of strain to AMP (S/R), preliminary study (E. coli): S

HAEHKVKIGVEQKYGQFPQGTEVTYTCSGNYFLM [Sushi 3]
Susceptibility of strain to AMP (S/R), preliminary study (B. pseudomallei isolates): R | Mean Diff., Untreated vs treated, Dunnett's Multiple Comparison Test (data for figure 2) [2]: 0.04165 | Susceptibility of strain to AMP (S/R), preliminary study (E. coli): S

Ornithine
Susceptibility of strain to AMP (S/R), preliminary study (B. pseudomallei isolates): R | Susceptibility of strain to AMP (S/R), preliminary study (E. coli): S
